In ChEMBL document CHEMBL1201862, “PubChem BioAssay data set” (2004):
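Compound exposure: 48 hours, 5 concentrations, 96-well plates. GI50: concentration for 50% inhibition of growth.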 Activity calls are given as the source filed them. Cut-off read from the data, not from the text of the source: active = GI50 up to about 1.1 µM and inactive = higher.

Columns and labels:
Experiment in all cases: NCI tumour cell line growth inhibition, 48 h
[1] = test system: A549
[2] = test system: ACHN
[3] = test system: BT-549
[4] = test system: COLO 205
[5] = test system: HCT-116
[6] = test system: HT-29
[7] = test system: KM12
[8] = test system: MCF7
[9] = test system: NCI/ADR-RES
[10] = test system: SK-OV-3
[11] = test system: TK-10
[12] = test system: UACC-62
[13] = test system: HCC 2998
[14] = test system: K562
[15] = test system: Malme-3M
[16] = test system: NCI-H522
[17] = test system: OVCAR-4
[18] = test system: RPMI-8226
[19] = test system: SF-268
[20] = test system: U-251

Row | Structure (SMILES) | GI50 [1] | GI50 [2] | GI50 [3] | GI50 [4] | GI50 [5] | GI50 [6] | GI50 [7] | GI50 [8] | GI50 [9] | GI50 [10] | GI50 [11] | GI50 [12] | GI50 [13] | GI50 [14] | GI50 [15] | GI50 [16] | GI50 [17] | GI50 [18] | GI50 [19] | GI50 [20]
1 | CC(=O)C1C(=O)C(=O)N(c2cccc(C)c2C)C1=O (stereo not drawn) | > 100 µM (inactive) | > 100 µM (inactive) | > 100 µM (inactive) | > 100 µM (inactive) | > 100 µM (inactive) | > 100 µM (inactive) | > 100 µM (inactive) | > 100 µM (inactive) | > 100 µM (inactive) | > 100 µM (inactive) | > 100 µM (inactive) | > 100 µM (inactive) |  |  |  |  |  |  |  | 
2 | CC1=C2C(=O)c3ccccc3C(=O)[C@H]2C[C@@H](N2CCCCCC2=O)O1 | 20.3 µM (inactive) | 23.4 µM (inactive) |  | 17.3 µM (inactive) |  | 27 µM (inactive) | 16.7 µM (inactive) |  | 22.3 µM (inactive) | 27.5 µM (inactive) | 23 µM (inactive) | 19.2 µM (inactive) | 16.7 µM (inactive) | 19.8 µM (inactive) | 12.9 µM (inactive) | 19.9 µM (inactive) | 17.2 µM (inactive) | 14.6 µM (inactive) | 20.9 µM (inactive) | 23.8 µM (inactive)
3 | O=C(CC(C(=O)c1ccco1)c1ccco1)c1ccco1 (stereo not drawn) | > 100 µM (inactive) | > 100 µM (inactive) |  | > 100 µM (inactive) | > 100 µM (inactive) | > 100 µM (inactive) | > 100 µM (inactive) | > 100 µM (inactive) | > 100 µM (inactive) | > 100 µM (inactive) | > 100 µM (inactive) | > 100 µM (inactive) | > 100 µM (inactive) | > 100 µM (inactive) |  | > 100 µM (inactive) | 23.8 µM (inactive) | > 100 µM (inactive) | > 100 µM (inactive) | > 100 µM (inactive)
4 | S=C(N/N=C\C=N/NC(=S)N1CCCCC1)N1CCCCC1 | 0.107 µM (active) | 0.267 µM (active) |  | 0.592 µM (active) | 0.124 µM (active) | 0.163 µM (active) | 0.54 µM (active) | 0.466 µM (active) | 0.267 µM (active) | 0.692 µM (active) | 1.61 µM (inactive) | 0.594 µM (active) |  | 0.547 µM (active) | 0.321 µM (active) | 0.608 µM (active) |  | 0.433 µM (active) | 0.231 µM (active) | 0.207 µM (active)
5 | Cc1ccc(S(=O)(=O)Nn2c(-c3ccccc3)c(C#N)c(-c3ccc(Cl)cc3)c(C#N)c2=O)cc1 | 26.9 µM (inactive) | 22 µM (inactive) | 18.5 µM (inactive) | 24.5 µM (inactive) | 18.9 µM (inactive) |  |  | 19.4 µM (inactive) |  | 35.4 µM (inactive) | 38 µM (inactive) | 16.1 µM (inactive) | 23.7 µM (inactive) | 33.7 µM (inactive) |  |  | 38.8 µM (inactive) | 14 µM (inactive) |  | 21.5 µM (inactive)
6 | CCN(CC)CCNC(=O)c1nn(-c2ccc(Cl)cc2)c2c1CCc1cc(OC)ccc1-2 | 8.22 µM (inactive) | 11.4 µM (inactive) | 17.4 µM (inactive) | 2.26 µM (inactive) | 3.56 µM (inactive) | 2.64 µM (inactive) | 6.53 µM (inactive) |  |  | 13.7 µM (inactive) | 11 µM (inactive) | 2.77 µM (inactive) | 2.34 µM (inactive) | 2.77 µM (inactive) | 1.6 µM (inactive) | 4.52 µM (inactive) | 8.04 µM (inactive) | 2.9 µM (inactive) | 7.19 µM (inactive) | 5.43 µM (inactive)
7 | Nc1ncnc2c1ncn2C1CC(O)C(CO)O1 (stereo not drawn) | > 100 µM (inactive) | > 100 µM (inactive) |  | > 100 µM (inactive) | > 100 µM (inactive) | > 100 µM (inactive) | 62.7 µM (inactive) | > 100 µM (inactive) | > 100 µM (inactive) | > 100 µM (inactive) | > 100 µM (inactive) | > 100 µM (inactive) | > 100 µM (inactive) | > 100 µM (inactive) | > 100 µM (inactive) | > 100 µM (inactive) | > 100 µM (inactive) | > 100 µM (inactive) | > 100 µM (inactive) | > 100 µM (inactive)
8 | O=C(O)c1cccc(/C=C/c2ccccc2)c1 | > 100 µM (inactive) | > 100 µM (inactive) | > 100 µM (inactive) | > 100 µM (inactive) | > 100 µM (inactive) | > 100 µM (inactive) | > 100 µM (inactive) | > 100 µM (inactive) | > 100 µM (inactive) | > 100 µM (inactive) | > 100 µM (inactive) | > 100 µM (inactive) |  |  | 72.6 µM (inactive) | > 100 µM (inactive) | > 100 µM (inactive) | > 100 µM (inactive) | > 100 µM (inactive) | > 100 µM (inactive)
